Results as given in paper PMC8874984, “Improved Cell-Potent and Selective Peptidomimetic Inhibitors of Protein N-Terminal Methyltransferase 1” (Molecules, 2022).

How the values were obtained:
[1] = Cytotoxicity by alamarBlue assay in HCT116 cells; conditions: human, GI50, HCT116 cells
Description: (§1) Cell viability assay. HCT116 cells were seeded as 5,000 cells/well on 96-well plates in the
(§2) presence of 1x PBS or DC541 at different concentrations for 24, 48, or 72 hours. Cell viability
(§3) was assessed using 0.2 mg/ml resazurin solutions prepared from resazurin sodium salt (Acros
(§4) OrganicsTM, AC418900050) dissolved in sterile 1 x PBS. Then, the cells were incubated with
(§5) 10 µl resazurin solution (10% of cell culture volume) for four hours at 37 °C. The fluorescence
(§6) Cell viability was calculated as 100% × (fluorescence of treated cells – fluorescence of
(§7) background controls) / (fluorescence of 1x PBS controls – fluorescence of background

[2] = test system: cellular α-N-terminal methylation level in HCT116 cells; assay: Cellular N-terminal methylation level, Western blot with anti-me3-SPK antibody; assay type: cell-based; conditions: Homo sapiens, HCT-116, cellular N-terminal methylation inhibition, n = 2
Description: Next, we investigated the effects of all peptidomimetic inhibitors with GI50 > 100 µM and IC50 < 1 µM on the cellular α-N-terminal methylation level in HCT116 cells (Table 2). Then, we examined the top three cell-potent peptidomimetic inhibitors 1d–f on the dose-response of inhibition of cellular N-terminal methylation levels. […] As the biochemical IC50 value of GD562 was about three-fold higher than DC541, we proposed that the improved cellular inhibition of GD562 may be attributed to its increased permeability with higher cLogP than DC541.
Figure 5 Inhibition of cellular N-terminal methylation by peptidomimetic inhibitors in HCT116 cells. Representative Western blot results of the effects of GD562 (A), GD564 (B), and GD573 (C) on the cellular methylation level. Image quantification was performed using ImageJ software (NIH). […] All experiments were performed in duplicate (n = 2). […]
Cellular N-methylation level.
The gel was transferred to a
system. Image quantification was done using ImageJ software (NIH). All bands were compared
OrganicsTM, AC418900050) dissolved in sterile 1 x PBS. […]

NTMT1 = molecular target: T1, NTMT1 (Homo sapiens, UniProt Q9BV86); assay: SAHH-coupled fluorescence assay of NTMT1 inhibition; assay type: biochemical; conditions: for IC50: SAHH-coupled fluorescence assay, n = 2, mean ± SD, read-out: IC50; for Expt. ΔGbind ± σ: estimated from the IC50 values in Table 1; for IC50/IC50 (DC541): ratio of NTMT1 IC50 to that of DC541
T1 construct: made in house
T1 sequence (Q9BV86 1-223): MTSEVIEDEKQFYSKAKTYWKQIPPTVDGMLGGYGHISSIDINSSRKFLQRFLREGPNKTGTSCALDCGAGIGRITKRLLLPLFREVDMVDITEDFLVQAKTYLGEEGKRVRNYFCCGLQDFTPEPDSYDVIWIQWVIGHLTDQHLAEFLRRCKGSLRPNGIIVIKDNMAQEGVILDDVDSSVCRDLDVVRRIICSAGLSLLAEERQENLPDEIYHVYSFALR

in vitro = conditions: PAMPA
HCT116 cells = assay: Cytotoxicity by alamarBlue assay in HCT116 cells
Description: as §1, §2, §3, §4, §5, §6, §7

me3-SET = test system: me3-SET; design: method as in PMID 33738076; conditions: even at 300 µM in HCT116 cells; cited from earlier work
me3-RCC1 = test system: me3-RCC1; design: method as in PMID 33738076; conditions: HCT116 cells; read-out: cellular IC50 on the me3-RCC1 level; cited from earlier work

Structure (SMILES) | GI50 [1] [µM] | IC50 [2] [µM] | IC50 (NTMT1) [µM] | Expt. ΔGbind ± σ (NTMT1) [kcal/mol] | IC50/IC50 (DC541) (NTMT1) | Papp (in vitro) [×10⁻⁶ cm/s] | GI50 (HCT116 cells) [µM] | inhibition of me3-SET level (me3-SET) | IC50 (me3-RCC1) [µM]
NCCCCC(NC(=O)C1CCCN1C(=O)Cc1cccc2ccccc12)C(=O)NCC1CCCCC1 (stereo not drawn) [Compound 1f] | > 300 | ~100 | 0.94 ± 0.03 | -8.22 ± 0.03 | 2.8 | 0.47 ± 0.07 | – | – | –
NCCCC[C@H](NC(=O)[C@@H]1CCCN1C(=O)Cc1cccc2ccccc12)C(=O)NCc1cccc(Br)c1 [Compound 1g] | ~130 | < 300 | 0.58 ± 0.03 | -8.51 ± 0.04 | 1.7 | 0.6 ± 0.1 | 128 ± 20 | – | –
NCCCC[C@H](NC(=O)[C@@H]1CCCN1C(=O)Cc1cccc2ccccc12)C(=O)NCc1ccc(Br)cc1 [Compound 1h] | ~130 | < 300 | 0.82 ± 0.07 | -8.30 ± 0.07 | 2.4 | 0.9 ± 0.2 | 135 ± 23 | – | –
CN(CCc1ccccc1)C(=O)C(CCCCN)NC(=O)C1CCCN1C(=O)Cc1cccc2ccccc12 (stereo not drawn) [Compound 1i] | – | – | 1.7 ± 0.07 | – | 5.0 | – | – | – | –
NCCCCC(NC(=O)C1CCCN1C(=O)Cc1cccc2ccccc12)C(=O)NCCc1ccc(-c2ccccc2)cc1 (stereo not drawn) [Compound 1j] | – | – | – | – | 7.4 | 0.9 ± 0.3 | – | – | –
NCCCCC(NC(=O)C1CCCN1C(=O)Cc1cccc2ccccc12)C(=O)NCCc1cccc(-c2ccccc2)c1 (stereo not drawn) [Compound 1k] | < 70 | – | – | – | 2.0 | 1.3 ± 0.4 | 65 ± 7 | – | –
NCCCCC(NC(=O)C1CCCN1C(=O)Cc1cccc2ccccc12)C(=O)Nc1ccccc1C(N)=O (stereo not drawn) [DC541, reference compound] | – | – | 0.34 ± 0.03 | -8.82 ± 0.07 | 1.0 | – | – | did not show any inhibition | ~100
